Experimental data from patent EP0170180A1, “Substituted guanidinobenzoic-acid phenyl esters, process for their production and their use as pharmaceutical preparations” (SCHERING AKTIENGESELLSCHAFT, priority 1984, dated 1986).
Where a name gives a salt, the structure may show the parent alone.

What was measured:
[1] = system: Maussperma; test: In vitro fertilisation (mouse); assay type: cell-based, Maus; conditions: for % Fertilisation: after 24 h; for Anzahl 2-Zellen-Embryos: counted after 24 h
Description: Dieser Test erlaubt eine erste Überprüfung der kontrazeptiven Effektivität sowie eine Überprüfung des Wirkprinzips per se:
In einem Mediumtropfen nach Brinster, Whitten und Whittingham, der den Inhibitor enthält, werden zunächst die durch Superovulation gewonnenen Oocyten überführt. Anschließend wird ein Aliquot des unbehandelten Maussperma hinzupipettiert. Die Konzentrationen des Inhibitors werden so gewählt, daß keine Hemmung der Motilität vorliegt. 24 Stunden später wird die Anzahl der geteilten und nicht geteilten Oocyten und damit die Fertilitätsrate bestimmt.
Es wird also überprüft, ob der zu untersuchende Akrosininhibitor, appliziert in einem System, in dem es zum unmittelbaren Kontakt zwischen Oocyte und Spermium kommt, eine Fertilisation hemmen kann - ohne daß eine Hemmung der Motilität der Spermien vorliegt.

[2] = system: Kaninchen; test: In vivo fertilisation (rabbit) after artificial insemination of preincubated sperm; conditions: sperm preincubated with 500 µg/ml, 36 h after insemination; for % geteilt: fertility rate; for geteilt: number of divided oocytes; for nicht geteilt: number of undivided oocytes
Description: Dieser Test ermöglicht Aussagen zur kontrazeptiven Effektivität unter in-vivo-Bedingungen:
Kaninchensperma, das mit Hilfe einer künstlichen Vagina gewonnen wird, wird mit dem zu untersuchenden Akrosininhibitor präinkubiert. Anschließend werden zur Induktion einer Superovulation mit PMS (pregnant mare serum) vorbehandelte Kaninchenweibchen mit dem vorbehandelten Sperma artifiziell inseminiert. Zur Auslösung der […] erhalten sie abschließend HCG (human chorionic gonadotropin).
36 Stunden später werden die Tiere getötet, die Ovidukte und Uteri entnommen und gespült, um die frühen Embryonen bzw. ungeteilten Oocyten zu gewinnen und anhand deren Anzahl die Fertilisationsrate zu bestimmen.

[3] = target: T1, Humanakrosin (Homo sapiens, UniProt P10323); test: Gelatinolysis test: acrosin inhibition in intact human spermatozoa (halo formation, semiquantitative); assay type: cell-based; conditions: Humansperma preincubated with inhibitor
T1 construct: endogenous in cells; host or cells: intact human spermatozoa (Humansperma)
Description: Dieser Test ist ebenfalls als Bestandteil des Primärscreenings anzusehen. Für die erwünschte kontrazeptive Wirkung eines Akrosininhibitors ist es - neben der eigentlichen Akrosinhemmung am isolierten Enzym - von essentieller Bedeutung, daß ein solcher Inhibitor in der Lage ist, das Plasmalemm und die äußere akrosomale Membran eines intakten Spermiums zu durchdringen, da Akrosin an der inneren akrosomalen Membran lokalisiert ist.
Als besonders geeignet für die Untersuchung dieser speziellen Fragestellung hat sich das Gelatinolyse-Modell nach P. Gaddum und R.Z. Blandau (Science 170: 749 - 751), modifiziert nach W.B. Schill (Int. J. Andrology 4: 25 - 38) und nach eigenen Ausarbeitungen erwiesen. Bei dieser Methode wird mit unbelichteten, fixierten und mit Methylenblau gefärbten Filmplatten für die Autoradiographie gearbeitet, deren Gelatineschicht durch die lytische Aktivität von Akrosin aufgelöst wird. Als Folge bilden sich um die Spermienköpfe gut sichtbare, weite Höfe (sog. Halo-Bildung/ Lysishof). Bei einer Hemmung von Akrosin unterbleibt die Ausbildung dieser Höfe.
Um die Penetrierfähigkeit eines erwiesenen Akrosininhibitors und damit die Hemmung von Akrosin am intakten Spermium zu untersuchen, wird Humansperma mit mehreren Konzentrationen des Inhibitors präinkubiert. […]

[4] = target: T1, Humanakrosin; test: Acrosin (human) assay: inhibition of isolated human acrosin; assay type: biochemical; conditions: Substrat: Benzoyl-L-arginyleth.-ester; read-out: I50
Description: Dieser Test stellt das eigentliche Primärscreening dar. Er gibt einen Anhaltspunkt über die inhibitorische Effektivität einer Verbindung am Enzym (Humanakrosin) selbst, erlaubt aber noch keine Aussage über die biologische Effektivität (d.h. Hemmung von Akrosin im intakten Spermium sowie kontrazeptive Wirksamkeit) der untersuchten Verbindungen.
Das durch eine saure Extraktion aus Humansperma gewonnene Enzym Akrosin wird mit verschiedenen Konzentrationen des potentiellen Inhibitors inkubiert, und es wird diejenige Konzentration bestimmt, die zu einer 50 %igen Hemmung der Akrosinaktivität führt. Die […] Akrosin spaltet physiologischerweise bevorzugt Arginin- und Lysin-Gruppen. Deshalb wird für die in vitro-Untersuchung zur Aktivitätsbestimmung von Akrosin ein Benzoyl-Arginin-Äthylester als Substrat verwendet.

T1 sequence (P10323 20-421): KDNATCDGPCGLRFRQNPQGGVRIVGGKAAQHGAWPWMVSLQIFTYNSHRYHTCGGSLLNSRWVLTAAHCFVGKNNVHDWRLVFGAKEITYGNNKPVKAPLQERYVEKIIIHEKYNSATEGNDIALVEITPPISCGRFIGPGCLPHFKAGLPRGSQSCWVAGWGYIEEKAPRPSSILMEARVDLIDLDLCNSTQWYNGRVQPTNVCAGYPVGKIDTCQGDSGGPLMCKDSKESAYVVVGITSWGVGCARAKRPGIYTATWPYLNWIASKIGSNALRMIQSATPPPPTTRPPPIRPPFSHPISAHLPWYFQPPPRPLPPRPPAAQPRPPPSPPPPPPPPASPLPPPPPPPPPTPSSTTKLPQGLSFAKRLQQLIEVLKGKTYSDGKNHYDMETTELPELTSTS

| Compound | % Fertilisation ([1]; 5 ug/ml) [%] | Anzahl 2-Zellen-Embryos ([1]; 5 ug/ml) | % geteilt [2] [%] | geteilt [2] | nicht geteilt [2] | Gelatinolyse: Hemmung der Akrosinaktivität ([3]; 1 µg/ml) | Gelatinolyse: Hemmung der Akrosinaktivität ([3]; 10 µg/ml) | IC50 [4] [nM] | % Fertilisation ([1]; 50 ug/ml) [%] | Anzahl 2-Zellen-Embryos ([1]; 50 ug/ml) |
| --- | --- | --- | --- | --- | --- | --- | --- | --- | --- | --- |
| COC(=O)c1ccccc1OC(=O)c1ccc(NC(=N)N)cc1 [Verbindung 1, 4-Guanidinobenzoesäure-(2-methoxycarbonylphenyl)-ester Hydrochlorid, reference compound] | 78 | 195 | 51 | 88 | 83 | ++ bis +++ | + bis ++ | 733 | – | – |
| COC(=O)c1cccc(OC(=O)c2ccc(NC(=N)N)cc2)c1 [Verbindung 5, 4-Guanidinobenzoesäure-(3-methoxycarbonylphenyl)-ester Hydrochlorid] | – | – | – | – | – | – | – | 550 | – | – |
| CCOC(=O)c1cccc(OC(=O)c2ccc(NC(=N)N)cc2)c1 [Verbindung 3, 4-Guanidinobenzoesäure-(3-ethoxycarbonylphenyl)-ester Hydrochlorid] | – | – | 1 | – | – | – | – | 200 | – | – |
| N#Cc1ccccc1OC(=O)c1ccc(NC(=N)N)cc1 [Verbindung 2, 4-Guanidinobenzoesäure-(2-cyanophenyl)-ester Hydrochlorid] | 59 | 134 | 1 | 2 | 158 | – | – | 40 | 7 | 22 |
| N=C(N)Nc1ccc(C(=O)Oc2cccc(C(N)=O)c2)cc1 [Verbindung 6, 4-Guanidinobenzoesäure-(3-carbamoylphenyl)-ester Hydrochlorid] | – | – | – | – | – | – | – | 320 | – | – |
